One data set has as its system erythrocytes. Put plainly: Cell-based antioxidant protection in erythrocytes (CAP-e) assay. As to conditions: for lysis of the cells: highest dose (3.3 mg/ml), erythrocytes. As for the experimental part:
The cell-based antioxidant protection in erythrocytes (CAP-e) assay (Honzel et. al., 2008, and Jensen GS. Cell-based antioxidant protection assay, also disclosed in U.S. Pat. No. 8,465,988, incorporated herein in its entirety by this reference) was used. This testing was selected to measure antioxidant power but, in addition, the method ensures that the antioxidant agent crosses the cell's lipid boundary layer so that only intracytoplasmic activity is measured. […] The tested concentrations for both gadusol and the Porphyra-334 ranged from 0.001 to 3.33 mg/mL.

Data set [1] can be described thus: In vivo SPF determination (FDA 21 CFR 201.327 SPF test procedure). Further details: species or system human. The protocol: An in vivo SPF determination was conducted according to FDA, 21 CFR Sec. 201.327, subpart (i), SPF Test Procedure, Sunscreen Drug Products for Over-the-Counter Human Use, Final Monograph, Federal Register, Vol. 76, No. 117, Jun. 17, 2011, the disclosure of which is incorporated herein in its entirety by this reference. Each in vivo test for a sunscreen formulation was tested on three different subjects.
For subject enrollment, the test subjects reported to the testing laboratory and received a complete explanation of the study procedures. Those who participated signed a written, witnessed consent form, and a permission to release personal health information form and provided a brief medical history. The technician did a final examination of the subject's back, between the belt-line and shoulder blades and determined their suitability to participate in this study.
A Xenon Arc Solar Simulator lamp, which has a continuous light spectrum in the UVA and UVB range (290-400 nanometers) was utilized for the in vivo light source. The spectral output of the solar simulator was filtered so that it meets the spectral output requirements for testing Sunscreen Drug Products for over-the-counter human use; FDA Final Monograph, 21 CFR Part 201.327 (i)(1), UV Source, Federal Register, Vol. 76, No. 117, Jun. 17, 2011 and the International Sun Protection Factor (SPF) Test Method, May 2006, the disclosure of which is incorporated herein in its entirety by this reference.
For a baseline value, a series of 5 UV radiation doses expressed as Joules/square meter, increasing in 25% increments, was administered to two unprotected separate locations on each test subject's back, just below the shoulder blades and above the belt-line, to determine the initial unprotected MED (MEDu).
The MEDu was administered in the following 5 dose series, with X representing the amount of UV energy projected to produce the test subject's MEDu (Table C).
On Day 2, subjects returned to the testing laboratory within 16 to 24 hours following completion of the MEDu doses for evaluation of their responses, and to determine each subject's unprotected MED (MEDu). A subject's Minimal Erythemal Dose (MED) was the quantity of erythema effective energy, or dose corresponding to the first site that produced the first unambiguous erythema reaction with well-defined borders. The following grading scale used in this study for determining a MED (+) response. • − No perceptible erythemal response • ? […]
MEDp UV Dose was administered by the technician via a series of 5 UV radiation doses expressed as Joules/square meter, as specified in FDA, 21 CFR, Sec. […]

Data set [2] is described as follows: In vitro SPF determination on VitroSkin substrate (Labsphere UV-1000, absorbance 290-400 nm). It is filed as physicochemical. As for the experimental part: SPF was also evaluated using an in vitro method that utilizes a synthetic/simulated skin as a test substrate. In this regard, VitroSkin® is an advanced testing substrate that effectively mimics the surface properties of human skin. It has been formulated to have topography, pH, critical surface tension, chemical reactivity and ionic strength that is similar to human skin. The procedure for in vitro testing was conducted according to a standard protocol. For testing, the test product was applied in a known amount to the substrate at an application density of 2 mg/cm^2. The in vitro SPF scores were determined using a Labsphere UV-1000 Ultraviolet Transmittance Analyzer. Spectral scans of absorbance of the artificial skin treated with a sample sunscreen formulation were performed in the UV region of 290-400 nm. The in vitro SPF was then calculated using the absorbance scan results. At least 5 in vitro SPF values were recorded for each example formulation and the averages calculated for reporting.
In another example, gadusol was tested by the in vitro method using the Vitroskin substrate in the methodology discussed above. The COS1 formulation having 0.0 and 0.5% (w/w) gadusol and the COS2 formulations were tested with 0, 0.25, 0.5% (w/w) gadusol.

For another data set, the system named is Vero E6 fibroblasts. It is filed as cell-based. The source says:
(§1) The amount of gadusol incorporated to provide the intended in vivo sunscreen SPF boosting activity can be from about 0.25, 0.50, 0.75, 1.0, 1.25, 1.50, 1.75, or 2.0% (w/w) in the sunscreen formulation that includes a physical/inorganic sunscreen active material, where any value can form an upper or lower endpoint, as appropriate. Still further, the amount of gadusol in the sunscreen formulation can be from about 0.25 to 2.0% (w/w), or from about 0.5 to 1.0% (w/w). In these, and possibly other amounts, gadusol suitably can provide a safe and effective sunscreen boosting effect when combined with sunscreen active ingredients. […] To summarize these safety tests, the cellular toxicity of gadusol was compared to that of a common sunscreen ingredient, oxybenzone. Vero E6 fibroblasts were used to evaluate toxicity. […] Toxicity towards E. coli was also not found.

Another data set can be described thus: Ames Test. It is filed as cell-based.
Text: as §1

Another data set can be described thus: Comet assay. It is filed as cell-based.
Text: as §1

Another data set has as its system E. coli. Put plainly: Toxicity towards E. coli. It is filed as cell-based.
Text: as §1

Data set [3] in a line: Stability of aqueous gadusol under acidic conditions (spectrophotometric at 296 nm). It is filed as physicochemical. As to conditions: after 90 days at pH 2.5. The protocol:
(§2) Yet further, the inventors have determined that the stability of aqueous gadusol can be improved when stored under acidic conditions. For example, 90% gadusol activity can be retained after 90 days at pH 2.5, where the concentration of gadusol is determined spectrophotometrically at 296 nm where it has an extinction coefficient of 21,800 M^−1 cm^−1. A standardized concentration curve can be used to determine an amount of gadusol in a volume sampled from a test solution at various time periods. Therefore, storage under acidic conditions may be useful for stabilizing gadusol generally, e.g., prior to introduction into a topical formulation. Combining gadusol with another antioxidant may be useful for extending the shelf life or stability of gadusol in a topical formulation.

The nature of data set [4]: UV absorbance of the compounds. It is filed as physicochemical. As to conditions: at 296 nm. As for the experimental part:
as §2

Data set [5] can be described thus: Folin-Ciocalteu antioxidant capacity. It is filed as biochemical. As to conditions: concentrations ranging from about 0.3 to 10 mg/ml.

On to `COC1=C(NCC(=O)O)C[C@@](O)(CO)CC1=N[C@H](C(=O)O)[C@@H](C)O` [Porphyra-334, reference compound], for which, in the data set on erythrocytes (gadusol and Porphyra-334 combined), the “effect on the protective action of gadusol (CAP-e)” value is given as “did not interfere with the protective action of the gadusol”. In addition, in the data set with erythrocytes, the “lysis of the cells” value is recorded as “caused some lysis of the cells”.
With `COC1=C(O)CC(O)(CO)C(O)C1=O` (stereo not shown) [gadusol], the “in vivo SPF, times the SPF conferred by 10% ZnO alone” value in data set [1] (0.5% gadusol (w/w) with 10% ZnO) is “about 1.35 times”; in data set [1] (0.75% gadusol (w/w) with 10% ZnO) it was about 1.51 times; in [1] (1.0% gadusol (w/w) with 10% ZnO), about 2.0 times. For the same compound, the SPF boost in data set [1] (gadusol 0.5 to 1% (w/w) in formulation containing 10% ZnO) was 135 to 200%. Further, the “greater in vitro SPF when added to a composition containing 10% ZnO” value in data set [2] (0.5% (w/w) gadusol) is about 50%. In [2] (0.5% gadusol, from about 290 to about 325 nm, FIG. 6), the “in vitro absorbance on addition to a 10% ZnO sunscreen formulation” value is listed as “significantly more absorbance”. For the same compound, in data set [2] (activity of the formulation matrix (1.1) subtracted), the “in vitro SPF activity of gadusol by itself” value is listed as 2.5-2.8 SPF units. For the same compound, the “cellular toxicity compared to oxybenzone” value with Vero E6 fibroblasts is recorded as “less toxic than oxybenzone”. In addition, in the data set “Ames Test”, the “mutagenicity in the Ames Test” value was “not to be mutagenic”. For the same compound, the “toxicity in the comet assay” value in the data set “Comet assay” was “nor was it toxic”. For the same compound, in the data set on E. coli, the “Toxicity towards E. coli” value was “not found”. Besides, in [3], the gadusol activity retained amounted to 90%. Also, in data set [4], the extinction coefficient is listed as 21,800 M^−1 cm^−1. For the same compound, the “antioxidant power (Folin-Ciocalteu)” value in data set [5] is on record as “substantially equivalent to a mycosporine compound from “nori” seaweed”. Moreover, the “antioxidant activity (CAP-e)” value in the data set with erythrocytes (at 0.133 mg/ml) is “Some in vivo antioxidant activity was seen”. Moreover, the “antioxidant activity (CAP-e) compared with Porphyra-334” value in the data set with erythrocytes (at about 1 mg/ml) is listed as “significantly more active antioxidant”. In addition, the “lysis of the cells” value in the data set on erythrocytes is given as “caused some lysis of the cells”.

These data come from US20260060907A1, “GADUSOL-CONTAINING SUNSCREEN FORMULATIONS” (ARCAEA, LLC, priority 2022, published 2026).
